Source: patent US20050176739A1, “Therapeutic agent for eating disorders” (priority 1999, published 2005)

What was measured:
[1] = tested on: Crj:CD (SD) rats; assay: Feed intake change by 4-week oral administration (Test Example 2); assay type: in vivo, rat
Protocol: (§1) Action of Increasing Feed Intake and Body Weight by 4-Week Oral Administration
(§2) Compound 1 was suspended in a 0.5% aqueous methyl cellulose solution to a final concentration of 20 mg/mL for 200 mg/kg dose or 40 mg/mL for 400 mg/kg dose, and the resulting solution was used.
(§3) Male and female Crj:CD (SD) rats (SPF) at the age 5 of weeks were purchased from Nippon Charles River Co., Ltd., and were then fed and conditioned for 7 days. During the term, their body weight change and conditions were observed, and animals determined as in healthy conditions were used at the test. At the start of the use, the body weights of the male animals were within a range of 177.4 to 193.6 g, while those of the female animals were within a range of 141.1 to 160.3 g. During both of the conditioning and feeding term and the test term, the animals were fed with a solid feed for mouse and rat [FR-2, Funabashi Agricultural Farm Co., Ltd.] and with water ad libitum.
(§4) As to the number of the animals used, 5 each of male and female animals were used for each group. As a negative control group, a group administered a 0.5% aqueous methyl cellulose solution alone was prepared. Based on the body weight at the termination of the conditioning and feeding term, the animals were randomly assigned to individual groups, so that the body weights were uniformly distributed among the resulting individual groups.
(§5) Oral administration was selected as the administration route. The solvent or the test compound was administered once daily in the morning for 4 weeks in a dose of 1 mL per 100 g of body weight.
(§6) The body weights and feed intake of the test animals were measured on days 0, 7, 14, 21 and 28. The individual measured values were tested, based on the same standards as in the […].

[2] = tested on: dd-strain male mice; assay: Acute toxicity test; assay type: in vivo, mouse; conditions: oral administration, mortality seven days after administration
Excerpt: Test compounds were orally administered to groups of dd-strain male mice weighing 20±1 g, each group consisting of three mice.

[3] = Body weight change by 4-week oral administration (Test Example 2); assay type: in vivo, rat
Protocol: as §1, §2, §3, §4, §5, §6

[4] = tested on: Crj:CD (SD) rats; assay: Action of increasing feed intake by 4-week oral administration (Test Example 1); assay type: in vivo, rat
Protocol: Action of Increasing Feed Intake by 4-Week Oral Administration
Compound 1 was suspended in a 0.5% aqueous methyl cellulose solution to a final concentration of 0.6 mg/mL for 6 mg/kg dose, 3 mg/mL for 30 mg/kg dose, 16 mg/mL for 160 mg/kg dose, or 80 mg/mL for 800 mg/kg dose, and the resulting solution was used.
Male and female Crj:CD (SD) rats (SPF) at the age of 5 weeks were purchased from Nippon Charles River Co., Ltd., and were then fed and conditioned for 9 days. During the term, their body weight change and conditions were observed, and animals determined as in healthy conditions were used at the test. At the start of the use, the body weights of the male animals were within a range of 187 to 209 g, while those of the female animals were within a range of 147 to 173 g. During both of the conditioning and feeding term and the test term, the animals were fed with a solid feed for mouse and rat (CRF-1 15 kGy, Oriental Yeast Industry, Co., Ltd.) and with water, ad libitum.
as §4, with “used, 15” for “used, 5”
Oral administration was selected as the administration route. The solvent or a test compound-containing solution was administered once daily in the morning for 4 weeks in a dose of 1 mL per 100 g of body weight.
The feed intake of the test animals was measured on days 7, 14, 21 and 28. The measured values were tested for homoscedasticity by the Bartlett's test. When the variance was homogeneous, one-way layout analysis of variance was performed; in the case that significance was observed, herein, the control group and the individual dosed groups were tested by the Dunnett's test. When the variance was not homogeneous, the Kruskal-Wallis's rank test was performed; in the case that significance was observed among the groups, the Dunnett's test was conducted.

[5] = 4-week oral administration, male and female rats
[6] = female rats, 200 mg/kg po once daily, day 0
[7] = female rats, 200 mg/kg po once daily, day 7
[8] = female rats, 200 mg/kg po once daily, day 14
[9] = female rats, 200 mg/kg po once daily, day 21
[10] = female rats, 200 mg/kg po once daily, day 28
[11] = female rats, 400 mg/kg po once daily, day 0
[12] = female rats, 400 mg/kg po once daily, day 7
[13] = female rats, 400 mg/kg po once daily, day 14
[14] = female rats, 400 mg/kg po once daily, day 21
[15] = female rats, 400 mg/kg po once daily, day 28
[16] = male rats, 200 mg/kg po once daily, day 0
[17] = male rats, 200 mg/kg po once daily, day 7
[18] = male rats, 200 mg/kg po once daily, day 14
[19] = male rats, 200 mg/kg po once daily, day 21
[20] = male rats, 200 mg/kg po once daily, day 28
[21] = male rats, 400 mg/kg po once daily, day 0
[22] = male rats, 400 mg/kg po once daily, day 7
[23] = male rats, 400 mg/kg po once daily, day 14
[24] = male rats, 400 mg/kg po once daily, day 21
[25] = male rats, 400 mg/kg po once daily, day 28

CCn1c(=O)c2c(nc(/C=C/c3ccc(OC)c(OC)c3)n2C)n(CC)c1=O [Compound 1, (E)-8-(3,4-dimethoxystyryl)-1,3-diethyl-7-methylxanthine]
effect on feed intake (in words) [1, 5]: increased the feed intake | Feed intake (g ± SD) [1, 6]: 13.4 ± 1.7 g | Feed intake (g ± SD) [1, 7]: 20.2 ± 1.7 g | Feed intake (g ± SD) [1, 8]: 21.8 ± 1.7 g | Feed intake (g ± SD) [1, 9]: 20.9 ± 2.6 g | Feed intake (g ± SD) [1, 10]: 23.8 ± 3.0 g | Feed intake (g ± SD) [1, 11]: 14.6 ± 1.7 g | Feed intake (g ± SD) [1, 12]: 19.5 ± 2.2 g | Feed intake (g ± SD) [1, 13]: 21.1 ± 2.9 g | Feed intake (g ± SD) [1, 14]: 22.0 ± 2.6 g | Feed intake (g ± SD) [1, 15]: 24.5 ± 2.5 g | Feed intake (g ± SD) [1, 16]: 20.1 ± 1.0 g | Feed intake (g ± SD) [1, 17]: 28.4 ± 1.5 g | Feed intake (g ± SD) [1, 18]: 29.9 ± 1.6 g | Feed intake (g ± SD) [1, 19]: 30.2 ± 3.5 g | Feed intake (g ± SD) [1, 20]: 31.0 ± 1.1 g | Feed intake (g ± SD) [1, 21]: 20.7 ± 1.2 g | Feed intake (g ± SD) [1, 22]: 27.9 ± 2.5 g | Feed intake (g ± SD) [1, 23]: 30.2 ± 3.8 g | Feed intake (g ± SD) [1, 24]: 30.3 ± 3.9 g | Feed intake (g ± SD) [1, 25]: 34.8 ± 4.4 g | minimum lethal dose (MLD) [2]: greater than 1000 mg/kg | effect on body weight (in words) [3, 5]: increased the feed intake and body weight | Body weight (g ± SD) [3, 6]: 151.0 ± 5.7 g | Body weight (g ± SD) [3, 7]: 178.6 ± 7.6 g | Body weight (g ± SD) [3, 8]: 206.0 ± 7.1 g | Body weight (g ± SD) [3, 9]: 232.5 ± 13.4 g | Body weight (g ± SD) [3, 10]: 255.7 ± 17.3 g | Body weight (g ± SD) [3, 11]: 152.9 ± 4.5 g | Body weight (g ± SD) [3, 12]: 178.1 ± 3.3 g | Body weight (g ± SD) [3, 13]: 207.8 ± 11.5 g | Body weight (g ± SD) [3, 14]: 236.5 ± 16.3 g | Body weight (g ± SD) [3, 15]: 259.3 ± 14.3 g | Body weight (g ± SD) [3, 16]: 191.2 ± 2.4 g | Body weight (g ± SD) [3, 17]: 247.3 ± 4.8 g | Body weight (g ± SD) [3, 18]: 313.5 ± 12.1 g | Body weight (g ± SD) [3, 19]: 371.5 ± 23.9 g | Body weight (g ± SD) [3, 20]: 419.2 ± 28.0 g | Body weight (g ± SD) [3, 21]: 189.5 ± 4.4 g | Body weight (g ± SD) [3, 22]: 242.5 ± 10.7 g | Body weight (g ± SD) [3, 23]: 304.8 ± 15.7 g | Body weight (g ± SD) [3, 24]: 361.9 ± 23.8 g | Body weight (g ± SD) [3, 25]: 415.6 ± 29.2 g | effect on feed intake (in words) [4, 5]: increased the feed intake both in the males and in the females | Feed intake (g ± SD) ([4]; female rats, 6 mg/kg po once daily, day 7): 15.93 ± 1.09 g | Feed intake (g ± SD) ([4]; female rats, 6 mg/kg po once daily, day 14): 18.03 ± 1.37 g | Feed intake (g ± SD) ([4]; female rats, 6 mg/kg po once daily, day 21): 18.76 ± 1.18 g | Feed intake (g ± SD) ([4]; female rats, 6 mg/kg po once daily, day 28): 18.80 ± 1.46 g | Feed intake (g ± SD) ([4]; female rats, 30 mg/kg po once daily, day 7): 17.24 ± 1.19 g | Feed intake (g ± SD) ([4]; female rats, 30 mg/kg po once daily, day 14): 19.38 ± 1.74 g | Feed intake (g ± SD) ([4]; female rats, 30 mg/kg po once daily, day 21): 19.93 ± 2.08 g | Feed intake (g ± SD) ([4]; female rats, 30 mg/kg po once daily, day 28): 20.50 ± 1.96 g | Feed intake (g ± SD) ([4]; female rats, 160 mg/kg po once daily, day 7): 17.73 ± 1.40 g | Feed intake (g ± SD) ([4]; female rats, 160 mg/kg po once daily, day 14): 19.56 ± 1.68 g | Feed intake (g ± SD) ([4]; female rats, 160 mg/kg po once daily, day 21): 20.56 ± 1.73 g | Feed intake (g ± SD) ([4]; female rats, 160 mg/kg po once daily, day 28): 20.87 ± 2.04 g | Feed intake (g ± SD) ([4]; female rats, 800 mg/kg po once daily, day 7): 17.30 ± 0.99 g | Feed intake (g ± SD) ([4]; female rats, 800 mg/kg po once daily, day 14): 19.19 ± 1.44 g | Feed intake (g ± SD) ([4]; female rats, 800 mg/kg po once daily, day 21): 20.43 ± 1.69 g | Feed intake (g ± SD) ([4]; female rats, 800 mg/kg po once daily, day 28): 21.13 ± 1.76 g | Feed intake (g ± SD) ([4]; male rats, 6 mg/kg po once daily, day 7): 21.45 ± 1.28 g | Feed intake (g ± SD) ([4]; male rats, 6 mg/kg po once daily, day 14): 23.97 ± 1.21 g | Feed intake (g ± SD) ([4]; male rats, 6 mg/kg po once daily, day 21): 24.96 ± 1.58 g | Feed intake (g ± SD) ([4]; male rats, 6 mg/kg po once daily, day 28): 25.23 ± 1.80 g | Feed intake (g ± SD) ([4]; male rats, 30 mg/kg po once daily, day 7): 23.54 ± 2.15 g | Feed intake (g ± SD) ([4]; male rats, 30 mg/kg po once daily, day 14): 26.12 ± 2.03 g | Feed intake (g ± SD) ([4]; male rats, 30 mg/kg po once daily, day 21): 27.03 ± 2.07 g | Feed intake (g ± SD) ([4]; male rats, 30 mg/kg po once daily, day 28): 27.37 ± 2.56 g | Feed intake (g ± SD) ([4]; male rats, 160 mg/kg po once daily, day 7): 23.94 ± 1.58 g | Feed intake (g ± SD) ([4]; male rats, 160 mg/kg po once daily, day 14): 26.20 ± 1.77 g | Feed intake (g ± SD) ([4]; male rats, 160 mg/kg po once daily, day 21): 27.31 ± 1.74 g | Feed intake (g ± SD) ([4]; male rats, 160 mg/kg po once daily, day 28): 27.81 ± 2.47 g | Feed intake (g ± SD) ([4]; male rats, 800 mg/kg po once daily, day 7): 22.84 ± 1.81 g | Feed intake (g ± SD) ([4]; male rats, 800 mg/kg po once daily, day 14): 25.40 ± 2.42 g | Feed intake (g ± SD) ([4]; male rats, 800 mg/kg po once daily, day 21): 26.67 ± 2.19 g | Feed intake (g ± SD) ([4]; male rats, 800 mg/kg po once daily, day 28): 27.03 ± 2.37 g

CCn1c(=O)c2c(nc(/C=C/c3cc(OC)c4c(c3)OCO4)n2C)n(CC)c1=O [Compound 3, (E)-1,3-diethyl-8-(3-methoxy-4,5-methylenedioxystyryl)-7-methylxanthine]
melting point: 201.5 to 202.3 °C
